# Data from article PMC3689833, “Neurochemical Changes in the Mouse Hippocampus Underlying the Antidepressant Effect of Genetic Deletion of P2X7 Receptors” (PLoS ONE, 2013).
# Experiments:
# P2rx7+/+ mice = assay: Automated tail suspension test (TST), LPS-induced depressive behavior; type: in vivo, mouse; conditions: LPS 1 mg/kg i.p. 24 h before, antagonist 50 mg/kg i.p. 30 min before test
# Method: All experiments and treatments were performed during the light phase (7.00 AM–7.00 PM). The TST was conducted using an automated tail suspension device (BIO-TST2, Bioseb, France) in accordance with a previously described method. The device consisted of a single tail suspension module with three chambers, connected to a personal computer that recorded the activity of the animals during the test sessions. Three mice were individually suspended by the tail onto the hooks of the device using adhesive tape (distance from tip of tail was 1–2 cm). The measurements were automatically recorded within 5–10 seconds after placing the last animal into the chamber, and each measurement lasted 6 min. […] The threshold level was set at 6. To examine endotoxin-induced depressive behavior, the animals were subjected to bacterial lipopolysaccharide injection (LPS, serotype 055:B5, Sigma, St. Louis, […], USA, 1 mg/kg i.p.) at 24 h before a single 6-min test period. Brilliant blue G (BBG, 50 mg/kg i.p.) or an equal volume of saline was injected at 30 min before the test period. The time of immobility was expressed in sec. The P2rx7+/+ and P2rx7−/− mice were subjected to alternation testing. […] The data of these animals were excluded from the calculations during the post hoc analysis.
# [1] = system: P2rx7+/+ and P2rx7−/− mice; assay: Sucrose preference test (SPT), LPS-induced anhedonia; type: in vivo, mouse; conditions: P2rx7+/+ mice, subacute 4-day 50 mg/kg i.p., LPS 0.2 mg/kg i.p.
# Method: The experiments were performed using the two-bottle sucrose preference paradigm. The decreased preference for sucrose vs. water in this test has been proposed to reflect impaired sensitivity towards reward and to model anhedonia. Mice were offered a choice of 2% sucrose solution or water during 12-hour nocturnal periods (starting at 19∶00). The bottles were weighed before and after each test session to monitor sucrose and water consumption. The relative position of the sucrose and water bottles were swapped every night to avoid place preferences. The baseline sucrose intake was measured under a habituation period of 3–4 days before administering the treatments, and the mean volume ingested over the last 3 training sessions was used as a baseline value. The sucrose consumption was measured for 4 consecutive nights after LPS (0.2 mg/kg i.p.) or saline administration and expressed as g/100 g body weight or as a percentage of the baseline (%).
smiles,measurement,setting,value
"CCOc1ccc(Nc2ccc(/C(=C3C=C/C(=[N+](/CC)Cc4cccc(S(=O)(=O)[O-])c4)C=C/3C)c3ccc(N(CC)Cc4cccc(S(=O)(=O)O)c4)cc3C)cc2)cc1 [BBG, Brilliant blue G]",LPS-induced depressive behavior in TST (immobility),P2rx7+/+ mice,significantly attenuated
same,sucrose consumption one day after LPS injection,[1],did not change
same,sucrose consumption over subsequent days after LPS,[1],significantly increased
